Experimental data: the NIST ThermoML archive (doi:10.1016/j.jct.2016.10.020)
Numbers after ± are expanded uncertainties.

Experiments:
[1] = Crystal; DTA
[2] = Molar enthalpy of transition or fusion; settings: Crystal; DSC

For `COc1cc(Cl)nc(N)n1` [2-amino-4-chloro-6-methoxypyrimidine], the Normal melting temperature [1] was 173.80 ± 1.1 °C and the “Molar enthalpy of transition or fusion” value [2] was 5.93 ± 0.239 kcal/mol.
